Source: ChEMBL document CHEMBL5260810, “Inhibition of bromodomain-containing protein 9 for the prevention of epigenetically-defined drug resistance” (Bioorg Med Chem Lett, 2017)
Calls of active or inactive are those of the source. The rule behind the calls is not given here.

Experiments:
[1] = molecular target: Bromodomain-containing protein 4 (Homo sapiens, UniProt O60885); assay: Binding affinity to BRD4 in human PC-9 cell lysate assessed as increase in thermal stabilization at 2 uM at 38 to 71 degreeC measured after 30 mins by CETSA; type: subcellular
[2] = system: PC-9; assay: Cytotoxicity against human PC-9 cells assessed as reduction in drug tolerant population at 2 uM supplemented with fresh medium containing compound every 3 days for 9 days in presence of erlotinib by Beckman Coulter counting method relative to control; type: functional; design: scale not given: the % may be the effect or the level left; settings: time 9 day
[3] = Cytotoxicity against human HS-Sultan cells measured after 3 days; type: functional, cell-based; settings: 72 h
[4] = system: K562; assay: Cytotoxicity against human K562 cells measured after 3 days; type: functional, cell-based; settings: K562, 72 h
[5] = Cytotoxicity against human KMS-26 cells measured after 3 days; type: functional, cell-based; settings: KMS-26, 72 h
[6] = Cytotoxicity against human KMS-34 cells measured after 3 days; type: functional, cell-based; settings: KMS-34, 72 h
[7] = system: L-363; assay: Cytotoxicity against human L-363 cells measured after 3 days; type: functional, cell-based; settings: L-363, 72 h
[8] = system: Ramos; assay: Cytotoxicity against human Ramos cells measured after 3 days; type: functional, cell-based; settings: 72 h
[9] = system: SKM-1; assay: Cytotoxicity against human SKM-1 cells measured after 3 days; type: functional, cell-based; settings: SKM-1, 72 h
[10] = system: ACHN; assay: Cytotoxicity against human ACHN cells measured after 3 days; type: functional, cell-based; settings: 72 h
[11] = system: G-402; assay: Cytotoxicity against human G-402 cells measured after 3 days; type: functional, cell-based; settings: G-402, 72 h
[12] = Cytotoxicity against human JHH-1 cells measured after 3 days; type: functional, cell-based; settings: JHH1, 72 h
[13] = Cytotoxicity against human JHH-6 cells measured after 3 days; type: functional, cell-based; settings: JHH-6, 72 h
[14] = system: PLC-PRF-5; assay: Cytotoxicity against human PLC-PRF-5 cells measured after 3 days; type: functional, cell-based; settings: PLC-PRF-5, 72 h
[15] = system: NCI-H1734; assay: Cytotoxicity against human NCI-H1734 cells measured after 3 days; type: functional, cell-based; settings: NCI-H1734, 72 h
[16] = system: NCI-H520; assay: Cytotoxicity against human NCI-H520 cells measured after 3 days; type: functional, cell-based; settings: NCI-H520, 72 h
[17] = system: COR-L47; assay: Cytotoxicity against human COR-L47 cells measured after 3 days; type: functional, cell-based; settings: COR-L47, 72 h
[18] = Cytotoxicity against human MOR cells measured after 3 days; type: functional, cell-based; settings: 72 h
[19] = system: KMS-12-BM; assay: Cytotoxicity against human KMS-12-BM cells measured after 3 days; type: functional, cell-based; settings: 72 h
[20] = Cytotoxicity against human MOLM16 cells measured after 3 days; type: functional, cell-based, MOLM-16; settings: MOLM16, 72 h
[21] = system: SUP-B15; assay: Cytotoxicity against human SUP-B15 cells measured after 3 days; type: functional, cell-based; settings: SUP-B15, 72 h
[22] = system: KMS-11; assay: Cytotoxicity against human KMS-11 cells measured after 3 days; type: functional, cell-based; settings: KMS-11, 72 h
[23] = system: U-266; assay: Cytotoxicity against human U266B1 cells measured after 3 days; type: functional, cell-based; settings: U-266, 72 h
[24] = system: ML-2; assay: Cytotoxicity against human ML-2 cells measured after 3 days; type: functional, cell-based; settings: ML-2, 72 h
[25] = Cytotoxicity against human NCE-G 140 cells measured after 3 days; type: functional, cell-based; settings: NCE-G 140, 72 h
[26] = Cytotoxicity against human NCE-G 61 cells measured after 3 days; type: functional, cell-based; settings: NCE-G 61, 72 h
[27] = Cytotoxicity against human NCE-G 59 cells measured after 3 days; type: functional, cell-based; settings: NCE-G 59, 72 h
[28] = system: BT-20; assay: Cytotoxicity against human BT-20 cells measured after 3 days; type: functional, cell-based; settings: BT-20, 72 h
[29] = system: SU-DHL-8; assay: Cytotoxicity against human SU-DHL-8 cells measured after 3 days; type: functional, cell-based; settings: SU-DHL-8, 72 h
[30] = system: PEO1; assay: Cytotoxicity against human PEO1 cells measured after 3 days; type: functional, cell-based; settings: PEO1, 72 h
[31] = system: IGROV-1; assay: Cytotoxicity against human IGROV-1 cells measured after 3 days; type: functional, cell-based; settings: IGROV-1, 72 h
[32] = system: SK-OV-3; assay: Cytotoxicity against human SK-OV-3 cells measured after 3 days; type: functional, cell-based; settings: SK-OV-3, 72 h
[33] = system: SW982; assay: Cytotoxicity against human SW982 cells measured after 3 days; type: functional, cell-based; settings: SW982, 72 h
[34] = system: YMB-1-E; assay: Cytotoxicity against human YMB-1-E cells measured after 3 days; type: functional, cell-based; settings: 72 h
[35] = system: HCC1419; assay: Cytotoxicity against human HCC1419 cells measured after 3 days; type: functional, cell-based; settings: HCC1419, 72 h
[36] = system: SUM149PT; assay: Cytotoxicity against human SUM149PT cells measured after 3 days; type: functional, cell-based; settings: 72 h
[37] = Cytotoxicity against human VP267 cells measured after 3 days; type: functional, cell-based; settings: VP267, 72 h
[38] = system: BT-474; assay: Cytotoxicity against human BT-474 cells measured after 3 days; type: functional, cell-based; settings: BT-474, 72 h
[39] = system: SK-BR-3; assay: Cytotoxicity against human SK-BR-3 cells measured after 3 days; type: functional, cell-based; settings: SK-BR-3, 72 h
[40] = system: HBL-100; assay: Cytotoxicity against human HBL-100 cells measured after 3 days; type: functional, cell-based; settings: HBL-100, 72 h
[41] = system: SUM-159-PT; assay: Cytotoxicity against human SUM159PT cells measured after 3 days; type: functional, cell-based; settings: 72 h
[42] = Cytotoxicity against human VP229 cells measured after 3 days; type: functional, cell-based; settings: VP229, 72 h
[43] = Cytotoxicity against human Hs 38.T cells measured after 3 days; type: functional, cell-based; settings: 72 h
[44] = Cytotoxicity against human OVCA432 cells measured after 3 days; type: functional, cell-based; settings: OVCA432, 72 h
[45] = Cytotoxicity against human RKN cells measured after 3 days; type: functional, cell-based; settings: 72 h
[46] = system: TOV112D; assay: Cytotoxicity against human TOV112D cells measured after 3 days; type: functional, cell-based; settings: 72 h
[47] = Cytotoxicity against human COV362.4 cells measured after 3 days; type: functional, cell-based; settings: COV362.4, 72 h
[48] = Cytotoxicity against human TYK-nu.CP-r cells measured after 3 days; type: functional, cell-based; settings: 72 h
[49] = Cytotoxicity against human PMF-ko14 cells measured after 3 days; type: functional, cell-based; settings: PMF-ko14, 72 h
[50] = Cytotoxicity against human Hs 839.T cells measured after 3 days; type: functional, cell-based; settings: 72 h
[51] = Cytotoxicity against human HCC1428 cells measured after 8 days; type: functional, cell-based; settings: HCC1428, 192 h
[52] = Cytotoxicity against human 537-mel cells after 8 days; type: functional, cell-based; settings: 192 h
[53] = system: EBC-1; assay: Cytotoxicity against human EBC-1 cells after 8 days; type: functional, cell-based; settings: EBC-1, 192 h
[54] = system: HPAC; assay: Antiproliferative activity against HPAC assessed as reduction in colony formation upto 20 uM supplemented with fresh medium containing compound every 3 days for 9 days by MTT staining based clonogenic assay; type: functional, cell-based; settings: Homo sapiens, time 9.0 day
[55] = system: A-375; assay: Antiproliferative activity against human A-375 cells assessed as reduction in colony formation up to 20 uM supplemented with fresh medium containing compound every 3 days for 9 days by MTT staining based clonogenic assay; type: functional, cell-based; settings: time 9.0 day
[56] = system: REH; assay: Cytotoxicity against human REH cells measured after 8 days; type: functional, cell-based; settings: 192 h
[57] = system: THP-1; assay: Cytotoxicity against human THP-1 cells measured after 8 days; type: functional, cell-based; settings: THP-1, 192 h
[58] = system: NB-4; assay: Cytotoxicity against human NB-4 cells measured after 8 days; type: functional, cell-based; settings: NB-4, 192 h

In the case of `C/C=C/Cn1cc(-c2cc(OC)c(C(=O)N3CCOCC3)cc2OC)c2cc(C)[nH]c2c1=O`, the Activity [1] is reported as “inactive”, the Activity [2] is reported as over 60% and the IC50 [3] is reported as 5 µM. It also gave an IC50 [4] of 5 µM, an IC50 [5] of 5 µM and an IC50 [6] of 5 µM. For the same compound, the IC50 [7] was 5 µM, the IC50 [8] was 5 µM and the IC50 [9] was 5 µM. It also gave an IC50 [10] of 5 µM, an IC50 [11] of 5 µM and an IC50 [12] of 5 µM. For the same compound, the IC50 [13] was 5 µM, the IC50 [14] was 5 µM and the IC50 [15] was 5 µM. For the same compound, the IC50 [16] was 5 µM, the IC50 [17] was 5 µM and the IC50 [18] was 5 µM. The IC50 [19] was 5 µM, the IC50 [20] was 5 µM and the IC50 [21] was 5 µM. For the same compound, the IC50 [22] was 5 µM, the IC50 [23] was 5 µM and the IC50 [24] was 5 µM. It also gave an IC50 [25] of 5 µM, an IC50 [26] of 5 µM and an IC50 [27] of 5 µM. For the same compound, the IC50 [28] was 5 µM, the IC50 [29] was 5 µM and the IC50 [30] was 5 µM. The IC50 [31] was 5 µM, the IC50 [32] was 5 µM and the IC50 [33] was 5 µM. The IC50 [34] was 5 µM, the IC50 [35] was 5 µM and the IC50 [36] was 5 µM. It also gave an IC50 [37] of 5 µM, an IC50 [38] of 5 µM and an IC50 [39] of 5 µM. The IC50 [40] was 5 µM, the IC50 [41] was 5 µM and the IC50 [42] was 5 µM. The IC50 [43] was 5 µM, the IC50 [44] was 5 µM and the IC50 [45] was 5 µM. For the same compound, the IC50 [46] was 5 µM, the IC50 [47] was 5 µM and the IC50 [48] was 5 µM. The IC50 [49] was 5 µM, the IC50 [50] was 5 µM and the IC50 [51] was 2 µM. For the same compound, the IC50 [52] was 2 µM and the IC50 [53] was 2 µM.

In the case of `C/C=C/Cn1cc(-c2ccc(C(C)(C)O)cc2OC)c2cc[nH]c2c1=O`, the Activity [54] is reported as “inactive”, the Activity [55] is reported as “inactive” and the IC50 [56] is reported as 20 µM. It also gave an IC50 [57] of 16.2 µM and an IC50 [58] of 20 µM.
